Experimental data from patent publication US5310665A (Gist-brocades, N.V., priority 1990, dated 1994).

Columns and labels:
[1] = system: naturally occurring glucose isomerases (various microorganisms); conditions: range over microorganisms; cited from earlier work
[2] = molecular target: T1, Actinoplanes missouriensis glucose isomerase, wild type, SEQ ID NO: 1 (Actinoplanes missouriensis, UniProt P12851); experiment: Steady-state kinetics of glucose isomerase (coupled sorbitol dehydrogenase assay for xylose; cysteine-carbazole or sorbitol dehydrogenase method for glucose); format: biochemical; conditions: 60° C., 10 mM Mg2+, pH 7.5
T1 construct: made in house; host or cells: E. coli K514

[3] = molecular target: T2, Actinoplanes missouriensis glucose isomerase variant H290N (Actinoplanes missouriensis, UniProt P12851, H290N); experiment: Steady-state kinetics of glucose isomerase mutant; format: biochemical; conditions: 60° C., 10 mM Mg2+, pH 7.5
T2 construct: made in house; host or cells: E. coli K514
Procedure: (§1) Alternatively, the D-fructose produced during the isomerization reaction can be determined enzymatically using sorbitol dehydrogenase and NADH.
(§2) As a measure of specificity the quotient is Vmax /Km is sometimes used (Wells et al., ibid). […] These temperatures are chosen for practical reasons.
(§3) Activities were measured on purified enzyme. The coupled sorbitol dehydrogenase assay was used for xylose, the cysteine-carbazole or discontinuous sorbitol dehydrogenase method was used for glucose.

[4] = molecular target: T3, Actinoplanes missouriensis glucose isomerase variant M88SH290N (M88S/H290N) (Actinoplanes missouriensis, UniProt P12851, H290N/M88S); experiment: Steady-state kinetics of glucose isomerase mutant; format: biochemical; conditions: 60° C., 10 mM Mg2+, pH 7.5
T3 construct: made in house; host or cells: E. coli K514
Procedure: as §1, §2, §3

T2 sequence (P12851 2-394 H290N limits assumed): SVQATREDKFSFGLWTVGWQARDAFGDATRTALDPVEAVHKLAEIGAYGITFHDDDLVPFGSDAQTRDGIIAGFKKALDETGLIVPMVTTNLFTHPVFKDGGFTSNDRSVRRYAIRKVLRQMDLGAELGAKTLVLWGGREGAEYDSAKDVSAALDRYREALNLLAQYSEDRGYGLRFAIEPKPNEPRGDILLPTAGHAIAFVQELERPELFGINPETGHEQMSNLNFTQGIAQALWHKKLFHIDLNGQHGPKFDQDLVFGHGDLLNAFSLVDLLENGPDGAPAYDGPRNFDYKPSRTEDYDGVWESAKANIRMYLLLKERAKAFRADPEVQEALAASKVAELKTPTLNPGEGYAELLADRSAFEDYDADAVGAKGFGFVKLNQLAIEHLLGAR
T3 sequence (P12851 2-394 M88S/H290N limits assumed): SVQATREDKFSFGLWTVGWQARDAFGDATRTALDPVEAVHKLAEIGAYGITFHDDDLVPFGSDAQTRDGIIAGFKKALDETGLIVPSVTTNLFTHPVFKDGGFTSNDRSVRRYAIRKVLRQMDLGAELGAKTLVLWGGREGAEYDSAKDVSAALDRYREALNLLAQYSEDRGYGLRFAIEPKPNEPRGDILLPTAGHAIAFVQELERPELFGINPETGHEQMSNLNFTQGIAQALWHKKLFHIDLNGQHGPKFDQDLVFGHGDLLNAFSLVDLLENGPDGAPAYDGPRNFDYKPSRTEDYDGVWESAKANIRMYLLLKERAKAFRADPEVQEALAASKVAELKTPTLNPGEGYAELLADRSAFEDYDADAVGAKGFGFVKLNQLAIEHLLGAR
T1 sequence (P12851 2-394 limits assumed): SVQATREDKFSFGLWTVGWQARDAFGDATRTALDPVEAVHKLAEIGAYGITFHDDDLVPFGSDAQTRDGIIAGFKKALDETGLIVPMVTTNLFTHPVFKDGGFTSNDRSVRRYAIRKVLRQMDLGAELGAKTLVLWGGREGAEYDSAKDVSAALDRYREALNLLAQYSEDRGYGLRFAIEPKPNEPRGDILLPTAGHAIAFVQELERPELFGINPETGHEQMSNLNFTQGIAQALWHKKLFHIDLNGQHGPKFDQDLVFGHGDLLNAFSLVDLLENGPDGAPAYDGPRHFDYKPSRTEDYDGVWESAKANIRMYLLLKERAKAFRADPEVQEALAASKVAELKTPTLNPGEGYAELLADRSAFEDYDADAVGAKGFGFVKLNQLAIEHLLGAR

## O=C[C@H](O)[C@@H](O)[C@H](O)CO [xylose]
[1]
  Km: 5 to 93 mM

## O=C[C@H](O)[C@@H](O)[C@H](O)[C@H](O)CO [glucose]
[2]
  Vmax gl: 34.800 µmol/min/mg
[3]
  Vmax gl: 41.800 µmol/min/mg
[4]
  Vmax gl: 49.770 µmol/min/mg
